# Read-outs that look alike come from different tables or passages of the source.
# What was measured:
# [1] = test system: 60 different human tumor cell lines; conditions: for TGI: five dose
# glioblastoma (SF-295) = assay: NCI 60 five dose screen
# SR = assay: NCI 60 five dose screen
# RPMI-8226 = assay: NCI 60 five dose screen
# NCI-H522 (NSCLC) = assay: NCI 60 one dose screen; assay type: cell-based, human; conditions: Non-small Cell Lung Cancer
# SF-539 = assay: NCI 60 one dose screen; assay type: cell-based, human; conditions: one dose; CNS Cancer; SF-539
# [2] = test system: 60 different human tumor cell lines; assay: NCI Development Therapeutics Program 60 cell line screen, one dose; assay type: cell-based
# SF-295 = assay: NCI 60 one dose screen; assay type: cell-based, human; conditions: one dose; CNS Cancer; SF-295
smiles,measurement,setting,value
"C[C@]12CCc3sc(NCCc4ccccc4)nc3C1=CC[C@@H]1[C@@H]2CC[C@]2(C)C(=O)CC[C@@H]12 [IIa.2, (1S,2R,13R,14S,18S)-2,18-dimethyl-7-(2-phenylethylamino)-6-thia-8-azapentacyclo [11.7.0.02,10.05,9.014,18]icosa-5(9),7,10-trien-17-one]",LC50,[1],>l.00E−4
same,TGI,[1]; 786-0 (Renal Cancer),9.61E−6
same,TGI,[1]; A498 (Renal Cancer),>1.00E−4
same,TGI,[1]; ACHN (Renal Cancer),3.75E−6
same,TGI,[1]; BT-549 (Breast Cancer),>1.00E−4
same,TGI,[1]; CAKI-1 (Renal Cancer),1.11E−5
same,TGI,[1]; CCRF-CEM (Leukemia),4.04E−5
same,TGI,[1]; COLO 205 (Colon Cancer),8.77E−6
same,TGI,[1]; DU-145 (Prostate Cancer),>1.00E−4
same,TGI,[1]; EKVX (Non-small Cell Lung Cancer),>1.00E−4
same,TGI,[1]; HCC-2998 (Colon Cancer),>1.00E−4
same,TGI,[1]; HCT-15 (Colon Cancer),4.49E−6
same,TGI,[1]; HCT-116 (Colon Cancer),1.23E−5
same,TGI,[1]; HL-60(TB) (Leukemia),9.10E−6
same,TGI,[1]; HOP-62 (Non-small Cell Lung Cancer),>1.00E−4
same,TGI,[1]; HOP-92 (Non-small Cell Lung Cancer),9.10E−6
same,TGI,[1]; HS 578T (Breast Cancer),>1.00E−4
same,TGI,[1]; HT29 (Colon Cancer),8.11E−6
same,TGI,[1]; IGROV1 (Ovarian Cancer),6.18E−6
same,TGI,[1]; K-562 (Leukemia),>1.00E−4
same,TGI,[1]; KM12 (Colon Cancer),>1.00E−4
same,TGI,[1]; LOX IMVI (Melanoma),3.17E−6
same,TGI,[1]; M14 (Melanoma),>1.00E−4
same,TGI,[1]; MALME-3M (Melanoma),6.82E−6
same,TGI,[1]; MCF7 (Breast Cancer),>1.00E−4
same,TGI,[1]; MDA-MB-231/ATCC (Breast Cancer),2.14E−5
same,TGI,[1]; MDA-MB-435 (Melanoma),>1.00E−4
same,TGI,[1]; MDA-MB-468 (Breast Cancer),1.03E−5
same,TGI,[1]; MOLT-4 (Leukemia),>1.00E−4
same,TGI,[1]; NCI-H23 (Non-small Cell Lung Cancer),>1.00E−4
same,TGI,[1]; NCI-H226 (Non-small Cell Lung Cancer),6.57E−6
same,TGI,[1]; NCI-H322M (Non-small Cell Lung Cancer),>1.00E−4
same,TGI,[1]; NCI-H460 (Non-small Cell Lung Cancer),>1.00E−4
same,TGI,[1]; NCI-H522 (Non-small Cell Lung Cancer),3.64E−6
same,TGI,[1]; NCI/ADR-RES (Ovarian Cancer),7.52E−6
same,TGI,[1]; OVCAR-3 (Ovarian Cancer),4.83E−6
same,TGI,[1]; OVCAR-4 (Ovarian Cancer),>1.00E−4
same,TGI,[1]; OVCAR-5 (Ovarian Cancer),6.59E−5
same,TGI,[1]; OVCAR-8 (Ovarian Cancer),>1.00E−4
same,TGI,[1]; PC-3 (Prostate Cancer),>1.00E−4
same,TGI,[1]; RXF 393 (Renal Cancer),4.49E−6
same,TGI,[1]; SF-268 (CNS Cancer),>1.00E−4
same,TGI,[1]; SK-MEL-2 (Melanoma),>1.00E−4
same,TGI,[1]; SK-MEL-5 (Melanoma),5.27E−5
same,TGI,[1]; SK-MEL-28 (Melanoma),1.89E−5
same,TGI,[1]; SK-OV-3 (Ovarian Cancer),>1.00E−4
same,TGI,[1]; SN12C (Renal Cancer),>1.00E−4
same,TGI,[1]; SNB-19 (CNS Cancer),>1.00E−4
same,TGI,[1]; SW-620 (Colon Cancer),5.28E−6
same,TGI,[1]; T-47D (Breast Cancer),2.52E−5
same,TGI,[1]; TK-10 (Renal Cancer),>1.00E−4
same,TGI,[1]; U251 (CNS Cancer),>1.00E−4
same,TGI,[1]; UACC-62 (Melanoma),1.06E−5
same,TGI,[1]; UACC-257 (Melanoma),7.98E−5
same,TGI,[1]; UO-31 (Renal Cancer),2.51E−5
same,GI50,"glioblastoma (SF-295); Homo sapiens, SF-295",18.9 µM
same,CC50,"glioblastoma (SF-295); Homo sapiens, SF-295, read-out: LC50",> 100 µM
same,TGI,"glioblastoma (SF-295); SF-295 (CNS Cancer), five dose",>1.00E−4
same,GI50,"SR; Homo sapiens, SR",3.07 µM
same,CC50,"SR; Homo sapiens, SR, read-out: LC50",> 100 µM
same,TGI,"SR; SR (Leukemia), five dose",>1.00E−4
same,GI50,"RPMI-8226; Homo sapiens, RPMI-8226",1790 nM
same,CC50,"RPMI-8226; Homo sapiens, RPMI-8226, read-out: LC50",> 100 µM
same,TGI,"RPMI-8226; RPMI-8226 (Leukemia), five dose",5.69E−6
same,Growth Percent,NCI-H522 (NSCLC),44.08%
same,Growth Percent,SF-539,64.79%
same,Growth Percent,"[2]; Breast Cancer, BT-549",60.37%
same,Growth Percent,"[2]; Breast Cancer, HS 578T",75.51%
same,Growth Percent,"[2]; Breast Cancer, MCF7",20.41%
same,Growth Percent,"[2]; Breast Cancer, MDA-MB-231/ATCC",83.12%
same,Growth Percent,"[2]; Breast Cancer, MDA-MB-468",32.92%
same,Growth Percent,"[2]; Breast Cancer, T-47D",75.21%
same,Growth Percent,"[2]; CNS Cancer, SF-268",83.93%
same,Growth Percent,"[2]; CNS Cancer, SNB-19",80.20%
same,Growth Percent,"[2]; CNS Cancer, SNB-75",85.55%
same,Growth Percent,"[2]; CNS Cancer, U251",60.12%
same,Growth Percent,"[2]; Colon Cancer, COLO 205",90.61%
same,Growth Percent,"[2]; Colon Cancer, HCC-2998",105.58%
same,Growth Percent,"[2]; Colon Cancer, HCT-116",21.16%
same,Growth Percent,"[2]; Colon Cancer, HT29",34.29%
same,Growth Percent,"[2]; Colon Cancer, KM12",74.67%
same,Growth Percent,"[2]; Colon Cancer, SW-620",35.34%
same,Growth Percent,"[2]; Leukemia, CCRF-CEM",8.44%
same,Growth Percent,"[2]; Leukemia, HL-60(TB)",1.45%
same,Growth Percent,"[2]; Leukemia, K-562",5.14%
same,Growth Percent,"[2]; Leukemia, MOLT-4",4.71%
same,Growth Percent,"[2]; Leukemia, RPMI-8226",−5.28%
same,Growth Percent,"[2]; Leukemia, SR",0.92%
same,Growth Percent,"[2]; Melanoma, LOX IMVI",70.22%
same,Growth Percent,"[2]; Melanoma, M14",85.36%
same,Growth Percent,"[2]; Melanoma, MALME-3M",73.32%
same,Growth Percent,"[2]; Melanoma, MDA-MB-435",58.12%
same,Growth Percent,"[2]; Melanoma, SK-MEL-2",92.09%
same,Growth Percent,"[2]; Melanoma, SK-MEL-5",65.96%
same,Growth Percent,"[2]; Melanoma, SK-MEL-28",83.31%
same,Growth Percent,"[2]; Melanoma, UACC-62",75.59%
same,Growth Percent,"[2]; Melanoma, UACC-257",87.36%
same,Growth Percent,"[2]; Non-small Cell Lung Cancer, A549/ATCC",87.76%
same,Growth Percent,"[2]; Non-small Cell Lung Cancer, EKVX",92.45%
same,Growth Percent,"[2]; Non-small Cell Lung Cancer, HOP-62",101.67%
same,Growth Percent,"[2]; Non-small Cell Lung Cancer, HOP-92",66.42%
same,Growth Percent,"[2]; Non-small Cell Lung Cancer, NCI-H23",66.61%
same,Growth Percent,"[2]; Non-small Cell Lung Cancer, NCI-H226",84.07%
same,Growth Percent,"[2]; Non-small Cell Lung Cancer, NCI-H322M",91.89%
same,Growth Percent,"[2]; Non-small Cell Lung Cancer, NCI-H460",72.80%
same,Growth Percent,"[2]; Ovarian Cancer, IGROV1",87.98%
same,Growth Percent,"[2]; Ovarian Cancer, NCI/ADR-RES",70.16%
same,Growth Percent,"[2]; Ovarian Cancer, OVCAR-3",6.41%
same,Growth Percent,"[2]; Ovarian Cancer, OVCAR-4",74.22%
same,Growth Percent,"[2]; Ovarian Cancer, OVCAR-5",100.34%
same,Growth Percent,"[2]; Ovarian Cancer, OVCAR-8",72.09%
same,Growth Percent,"[2]; Ovarian Cancer, SK-OV-3",111.53%
same,Growth Percent,"[2]; Prostate Cancer, DU-145",33.94%
same,Growth Percent,"[2]; Prostate Cancer, PC-3",38.82%
same,Growth Percent,"[2]; Renal Cancer, 786-0",4.36%
same,Growth Percent,"[2]; Renal Cancer, A498",86.92%
same,Growth Percent,"[2]; Renal Cancer, ACHN",73.78%
same,Growth Percent,"[2]; Renal Cancer, CAKI-1",73.48%
same,Growth Percent,"[2]; Renal Cancer, RXF 393",20.01%
same,Growth Percent,"[2]; Renal Cancer, SN12C",68.49%
same,Growth Percent,"[2]; Renal Cancer, TK-10",91.34%
same,Growth Percent,"[2]; Renal Cancer, UO-31",50.44%
same,Growth Percent,SF-295,68.44%
